Where two headings read alike, the source gives them in different places.
Columns and labels:
[1] = Drug interaction study with rifampin (CYP3A4 inducer): plasma PK of i.v. eravacycline and metabolites; assay type: in vivo, human; conditions: for AUC0–24 / AUC(0-inf) / clearance / half-life / Vd / Cmax: n = 12; for Vd: read-out: Vss; for Cmax: iv
Experimental: (§1) Two single-center, open-label studies were conducted to evaluate the effects of itraconazole (CYP3A4 inhibitor) and rifampin (CYP3A4 inducer) on the pharmacokinetics of i.v. eravacycline in healthy subjects.
(ii) Study design. Each study included a 28-day screening period, a 13-day treatment period (19 days for rifampin), and an end-of-study visit 2 weeks after the last dose of study drug. […] For the itraconazole study, 200 mg oral itraconazole was administered q12h on day 8 and q24h on days 9 and 10. For the rifampin study, 600 mg oral rifampin was administered q24h from day 8 to day 17. All study treatments were administered in the fasting state.
(§2) (iii) Study assessments. Blood samples for PK analysis of eravacycline and its metabolites, TP-498, TP-6208, and TP-034, were collected predose and 1, 2, 4, 6, 8, 12, 24, 36, and 48 h after the start of the i.v. infusion on day 1 and day 10 (itraconazole) or day 1 and day 17 (rifampin). Safety assessments included AEs, clinical laboratory safety tests (hematology, serum chemistry, electrolytes, coagulation, urinalysis, and lipid profile), vital signs, physical examinations, and 12-lead ECG.
(§3) Concentrations of eravacycline, TP-498, and TP-6208 in human plasma samples were measured by LC-tandem MS after solid-phase extraction over a calibration range of 5.00 to 500 ng/ml. The LLOQ for eravacycline, TP-498, TP-6208, and TP-034 in human plasma was 5.00 ng/ml. Samples with eravacycline initial concentrations above the upper limit of quantification (500 ng/ml) were diluted appropriately with control blank human plasma and reanalyzed. There was no interference seen when human plasma was fortified with eravacycline, TP-498, TP-6208, and either itraconazole or rifampin.
(§4) (iv) Pharmacokinetic analysis. PK assessments included Cmax, Tmax, AUC0–24, AUC0–t, t1/2, CL, and Vss. Actual sampling time was used for PK calculations. PK parameters were derived by noncompartmental analysis. Descriptive statistics were calculated for analyte concentrations at each evaluation time point and for all quantitative PK parameters of eravacycline, TP-498, TP-6208, and TP-034 for day 1 and day 10 (day 17 for rifampin). The effect of itraconazole or rifampin on the PK profile of i.v. eravacycline was evaluated by comparing log-transformed PK parameters (Cmax and AUC0–t) associated with the administration of study drug on day 1 and day 10 (itraconazole) or day 1 and day 17 (rifampin) using paired t tests. The ratio and 90% confidence interval (CI) were presented after back transformation to the original scale. Pharmacokinetic variables were calculated using WinNonlin Professional.

[2] = as above; assay type: in vivo; conditions: human, intravenous, day 17, eravacycline plus rifampin, read-out: AUC0–t (distribution, as worded in the text)
[3] = design: species or system human; conditions: in vivo
Experimental: as §2

[4] = Mass balance study: excretion of radioactivity in urine and feces after i.v. [14C]eravacycline; assay type: in vivo, human; conditions: 60 mg [14C]eravacycline i.v.
Description: (ii) Study design. This was a single-center, open-label study of a single i.v. dose of [^14C]eravacycline to assess the mass balance recovery and PK of eravacycline. The primary objectives were to determine mass balance recovery, determine routes and rates of excretion, provide metabolite profiling and structural identification, and assess the PK of radioactivity in plasma and whole blood. Subjects were screened for inclusion in the study, including a detailed medical history, physical examination, and laboratory evaluations, in the 28 days before dosing. […] After an overnight fast, each subject received 60 mg [^14C]eravacycline containing not more than 3.8 MBq (105 μCi) ^14C as a single i.v. infusion over 60 min.
(v) Excretion of radioactivity. Mass balance was determined from the incremental amount and cumulative amount excreted in urine, feces, and urine and feces combined. Amount excreted and amount excreted expressed as a percentage of administered dose were determined for urine, feces, and total samples.

[5] = Drug interaction study with itraconazole (CYP3A4 inhibitor): plasma PK of i.v. eravacycline and metabolites; assay type: in vivo, human; conditions: for AUC(0-t) / Cmax / clearance / half-life / Vd: human, plasma, iv, mean ± SD, n = 10; for Vd: read-out: Vss
Experimental: as §1
(ii) Study design. Each study included a 28-day screening period, a 13-day treatment period (19 days for rifampin), and an end-of-study visit 2 weeks after the last dose of study drug. Eravacycline was administered in the morning as a 1-mg/kg i.v. infusion over 60 min on day 1 with a second dose on day 10 (itraconazole study) or day 17 (rifampin study). For the itraconazole study, 200 mg oral itraconazole was administered q12h on day 8 and q24h on days 9 and 10. For the rifampin study, 600 mg oral rifampin was administered q24h from day 8 to day 17. All study treatments were administered in the fasting state.
as §2, §3, §4

[6] = Mass balance study: safety/tolerability; assay type: in vivo, human
Experimental: Safety was assessed from adverse events (AEs), physical examinations, laboratory safety tests (hematology, coagulation, clinical chemistry, and urinalysis), vital signs, ECGs, and body weight.

[7] = Itraconazole drug interaction study: safety/tolerability; assay type: in vivo, human
Experimental: as §2

[8] = eravacycline plus rifampin (day 17) vs eravacycline alone (day 1), 1 mg/kg i.v.
[9] = human, plasma, intravenous, 1 mg/kg, day 1, eravacycline alone, mean ± SD
[10] = human, plasma, intravenous, day 17, with rifampin, mean ± SD
[11] = eravacycline plus itraconazole (day 10) vs eravacycline alone (day 1), 1 mg/kg i.v.
[12] = day 1, eravacycline 1 mg/kg i.v. alone
[13] = day 10, eravacycline 1 mg/kg i.v. with itraconazole

AUC0–24 ([1]; day 1, eravacycline alone, mean ± SD): 4,100 ± 589 h·ng/ml
AUC0–24 ([1]; day 17, with rifampin, mean ± SD): 3,090 ± 568 h·ng/ml
decrease of AUC0–24 with coadministration of rifampin ([1]; day 17 vs day 1): approximately 25%
decrease of AUC0–∞ with coadministration of rifampin ([1]; day 17 vs day 1): ~35%
increase of CL with coadministration of rifampin ([1]; day 17 vs day 1): approximately 50%
Ratio of geometric mean AUC0–t, day 17/day 1 [1, 8]: 67.9%
Ratio of geometric mean Cmax, day 17/day 1 [1, 8]: 106.5%
AUC(0-inf) [1, 9]: 5380 ng·h/mL
clearance [1, 9]: 3.2 ± 0.6 mL/min/kg
half-life [1, 9]: 15 ± 2 h
Vd [1, 9]: 2.85 ± 0.29 L/kg
AUC(0-t) ([1]; human, plasma, intravenous, 1 mg/kg, day 1, eravacycline alone, read-out: AUC0–t (distribution, as worded in the text)): 4100 ng·h/mL
AUC(0-inf) [1, 10]: 3520 ng·h/mL
clearance [1, 10]: 4.94 ± 1.08 mL/min/kg
half-life [1, 10]: 11 ± 2.3 h
Vd [1, 10]: 2.49 ± 0.51 L/kg
Cmax ([1]; human, plasma, day 1, eravacycline 1 mg/kg i.v. alone, mean ± SD): 1170 ng/mL
Cmax ([1]; human, plasma, day 17, eravacycline 1 mg/kg i.v. with rifampin 600 mg daily day 8 to 17, mean ± SD): 1260 ng/mL
AUC(0-t) [2]: 3090 ng·h/mL
Renal excretion, share of the dose [4]: approximately 34%
total radioactivity recovered in the feces [4]: 47.8%
total radioactive dose recovered in the urine and feces ([4]; 288-h collection period): 82.8%
share of the dose recovered within the first 72 h ([4]; urine and feces): Approximately half
Ratio of geometric mean AUC0–t, day 10/day 1 [5, 11]: 134.3%
Ratio of geometric mean Cmax, day 10/day 1 [5, 11]: 107.9%
decrease of CL with itraconazole ([5]; eravacycline plus itraconazole day 10 vs day 1): about 30%
AUC(0-t) [5, 12]: 4320 ng·h/mL
Cmax [5, 12]: 1100 ng/mL
clearance [5, 12]: 3.79 ± 1.03 mL/min/kg
half-life [5, 12]: 14 ± 2.4 h
Vd [5, 12]: 3.42 ± 0.73 L/kg
AUC(0-t) [5, 13]: 5700 ng·h/mL
Cmax [5, 13]: 1160 ng/mL
clearance [5, 13]: 2.57 ± 0.5 mL/min/kg
half-life [5, 13]: 19 ± 3.6 h
Vd [5, 13]: 3.37 ± 0.56 L/kg
SMILES: CN(C)[C@@H]1C(O)=C(C(N)=O)C(=O)[C@@]2(O)C(O)=C3C(=O)c4c(O)c(NC(=O)CN5CCCC5)cc(F)c4C[C@H]3C[C@@H]12 [eravacycline]
subjects who experienced an AE ([3]; human, iv): 25.0%
serious AEs or discontinuations for AEs related to study drug [3]: No serious AEs
serious or severe AEs [6]: No serious or severe AEs
number of subjects who experienced drug-related AEs ([6]; 5 male subjects): 3
subjects who experienced at least 1 adverse effect (AE) ([6]; 5 male subjects, single i.v. dose): 80%
subjects who experienced an AE ([7]; eravacycline i.v. plus itraconazole treatment period, 1 of 10 subjects): 10.0%
subjects who experienced an AE ([7]; eravacycline i.v. treatment period, 1 of 12 subjects): 8.3%
serious AEs or discontinuations for AEs related to study drug ([7]; itraconazole study): No serious AEs

From PMC6395926, “Mass Balance and Drug Interaction Potential of Intravenous Eravacycline Administered to Healthy Subjects” (Antimicrobial Agents and Chemotherapy, 2019)
